Measured values taken from paper PMC4387272, “Pharmacokinetic, pharmacodynamic and biomarker evaluation of transforming growth factor-β receptor I kinase inhibitor, galunisertib, in phase 1 study in patients with advanced cancer” (Investigational new drugs, 2014).
Where “and” joins values, the source holds several entries; their conditions need not be identical. Equal values may be shown once. Read-outs that look alike come from different tables or passages of the source. Marks after values point to notes of the source that are not given here.

Columns and labels:
[1] = tested on: T cell subsets (CD3+, CD8+, CD4+, CD4+CD25+CD127-/LOFoxp3+); test: Flow cytometry for T cell subsets; assay type: in vivo, Human
Source text: Blood samples were obtained and prepared for flow cytometry assessment following the instructions of Quintiles Laboratories (Durham, NC). After red blood cell lysis, cells were stained for CD3^+, CD8^+, CD4^+ and CD4^+CD25^+ CD127^−/LOFoxp3^+ and events were collected by flow cytometer per standard Quintiles procedures. All results were reported as absolute cell counts and as percentage of lymphocytes.
(§1) An amendment was introduced to assess T cell subsets in Part B and Part C.

[2] = Safety and blood counts in first-in-human dose study; assay type: in vivo
Source text: as §1

[3] = design: method as in PMID 24868575; conditions: population PK model, Cohorts 1 through 5; cited from earlier work
[4] = tested on: glioma; test: Radiographic response / clinical benefit (RECIST, Macdonald criteria) in first-in-human dose study; assay type: in vivo; conditions: for Cycles (n) (best response): individual glioma patients with sequenced tumor; for CR/PR/SD ≥6 cycles, Low grade/secondary glioma / CR/PR/SD ≥6 cycles, Primary glioma: number of patients; for Clinical Benefit / No Clinical Benefit: Parts A and B
Protocol: Starting with Cohort 3, only patients with relapsed and progressive glioma were eligible for this study. All patients were assessed for radiographic responses using Response Evaluation Criteria in Solid Tumors (RECIST) and, for glioma patients, using Macdonald criteria. All patients had to have an Eastern Cooperative Oncology Group performance status of ≤2. Patients were required to have adequate hematologic, hepatic, and renal function and discontinue all previous therapies for cancer at least 4 weeks prior to study enrollment. Exclusion criteria included medically uncontrolled cardiovascular illness, electrocardiogram anomalies, serious pre-existing medical conditions, and any unapproved therapy.
• Part A was a dose escalation study using galunisertib monotherapy administered initially to patients with advanced or metastatic cancer as a daily continuous dosing. Starting with Cohort 3 and for the remainder of the study, patients received galunisertib on an intermittent dose regimen of 14 days on/14 days off for a 28-day cycle. • Part B was a safety study using galunisertib on an intermittent dose regimen at 160 mg/day (80 mg twice daily [BID]) and 300 mg/day (150 mg BID) in combination with lomustine given once every 6 weeks in patients with recurrent malignant glioma who had previously failed approved treatments. • Part C was a relative bioavailability (RBA) crossover study conducted at only one center to assess two new formulations (publication in preparation). All patients were then eligible to continue on 300 mg/day dosing. In this part of the study, patients with different tumor histologies were eligible to participate; the majority of patients had glioma. The only results from Part C presented in this publication are the results of the T cell subset examination. Other results will be published elsewhere.
(§2) A power model was fitted to PK parameter estimates Cmax and AUC(0–24) to assess the extent of dose proportionality. Clinical benefit in this study has been defined as a patient with either a complete response (CR), partial response (PR), and stable disease (SD) ≥6 cycles. MAIP results from plasma samples taken at baseline were compared between patients completing >6 cycles and ≤6 cycles using ANOVA. The analysis included controlling the false discovery rate to 30 % using the Benjamini-Hochberg method. Boxplots showing the distributions at baseline of the potentially prognostic markers are provided. Observed TGF-β-stimulated pSMAD2 (pSMAD2^+) in PBMCs was normalized by TGF-β-stimulated tSMAD2 [(tSMAD2^+) ^0.6[9, 10]] prior to determining the minimum normalized pSMAD2^+ and calculating percentage inhibition post-baseline for each patient. Baseline and minimum post-baseline values for each patient together with maximum percentage inhibition are presented on a line and scatter plot for each patient in Cohort 3 and summary statistics by time point provided from a standard mixed effects regression model, fitting log normalized pSMAD2^+ to the fixed effects of log baseline normalized pSMAD2^+, nominal time point, dose and their interaction and patient as a random effect.
In order to interpret protein and gene expression as potential prognostic factors we used the concept of clinical benefit based on radiographic response and/or stable disease for ≥6 cycles (Table 3).

[5] = tested on: pSMAD2 in peripheral blood mononuclear cells (PBMCs); test: pSMAD2 ELISA in peripheral blood mononuclear cells of treated patients; assay type: in vivo, Human; conditions: for inhibition at 160 mg: Homo sapiens, PBMC, 160 mg/day cohort (Part A)
Protocol: pSMAD2 in peripheral blood mononuclear cells (PBMCs) were assessed by a specific ELISA as previously described, in which a rabbit polyclonal antibody recognizing pSMAD2 was used. Total SMAD2 was also assessed and used to normalize the expression of pSMAD2.
as §2
Using an ELISA to detect changes of pSMAD2 in isolated PBMCs as a PD response marker, we observed changes after galunisertib administration. […] In 11 of the 14 patients, pSMAD2 inhibition was assessed at the observed maximum concentration for galunisertib about 2–6 h after administration on Day 14 of the first cycle. In 6 of the 11 patients, pSMAD2 levels were reduced in relationship to drug concentration, while in the remaining 5 patients, there was no relationship at the expected Cmax (Fig. 2a). […] Once the drug was stopped after 14 days of administration, pSMAD2 changes were assessed for the next 3 days in 2 patients, one in Cohort 1 and 1 in Cohort 3 (Fig. 2c and d). The pSMAD2 inhibition was still present although drug levels were low or undetectable. The mean of the observed percentage inhibition of normalized pSMAD2^+ from Cycle 1 Day 1 and Day 12 for Cohort 3 together with the estimated means from the model are provided in Table 2.

[6] = Part B, in combination with lomustine
[7] = patients with advanced cancer, first-in-human dose study
[8] = Part B, in combination with lomustine, n=26
[9] = Primary glioma (n=13), IDH1/2 mutation
[10] = Primary glioma (n=13), Other mutation
[11] = Secondary or low grade glioma (n=8), IDH1/2 mutation
[12] = Secondary or low grade glioma (n=8), Other mutation

For `Cc1cccc(-c2nn3c(c2-c2ccnc4ccc(C(N)=O)cc24)CCC3)n1` [galunisertib], the “lymphocyte counts and the respective subsets” value [1, 6] was “reduced”, the “counts of CD3+, CD8+, CD4+ and CD4+CD25+CD127−/LOFoxp3+ cells” value ([1]; Part C, monotherapy) was “either stabilized or increased” and the lymphocyte counts ([2]; Part B, combination of galunisertib and lomustine, some patients) was “reduction in lymphocyte counts”. The “bone marrow toxicity (neutrophils, platelets, lymphocyte counts)” value ([2]; Part C, monotherapy 300 mg/day, patients receiving more than 2 cycles) was “no comparable bone marrow toxicity”, the cardiac adverse events [2, 7] was “no cardiac adverse events” and the “toxicity / safety profile” value [2, 7] was “favorable safety profile”. The “toxicity / safety profile” value ([2]; patients with advanced cancer, first-in-human dose study, listed as Galunisertib) was “favorable toxicity profile”, the “mean population CL” value [3] was 38 L/h and the “steady state volume of distribution (Vss)” value [3] was 210 L. The “patients with primary glioblastoma showing radiographic responses or SD ≥6 cycles” value ([4]; 3/13 patients, no IDH1 or IDH2 mutation) was 23%, the “patients with tumors not containing the EGFR variant treated for ≥6 cycles” value ([4]; 7/13 patients) was 54% and the “patients with tumors containing EGFR variants treated for <6 cycles” value ([4]; 8/8 patients (2 in Part A and 6 in Part B)) was 100%. The “patients with clinical benefit (CR, PR or SD ≥6 cycles)” value ([4]; 12 of 79 patients, all parts, all in glioma) was 15%, the “cycles treated, patients still receiving galunisertib as of June 2014” value ([4]; Part A, 2 individual patients) was 73 cycles and 55 cycles and the “Cycles on study treatment, median (range)” value ([4]; Part A, monotherapy, N=39) was 2 (1–46). The “Cycles (n) (best response)” value ([4]; Part A, monotherapy) was 3 and 2 and 1 and 29 (CR) and 13 (PR) and 22 (PR) and 46 (CR) and 40 (SD), the CR/PR ([4]; Part A, monotherapy, n=30) was 5 (16.7) n (%) and the “CR/PR/SD ≥6 cycles” value ([4]; Part A, monotherapy, n=30) was 6 n (%) and 6 (20.0) n (%). The “On study treatment at study closure in 2012” value ([4]; Part A, monotherapy, n=30) was 2 (6.7) n (%), the “CR/PR/SD ≥6 cycles, Low grade/secondary glioma” value ([4]; Part A, monotherapy) was 3 and the “CR/PR/SD ≥6 cycles, Primary glioma” value ([4]; Part A, monotherapy) was 3. For the same compound, the “cycles treated, patient still receiving galunisertib as of June 2014” value ([4]; Part B, 1 patient) was 48 cycles, the “Cycles on study treatment, median (range)” value ([4]; Part B, in combination with lomustine, N=26) was 2 (1–22) and the “Cycles (n) (best response)” value [4, 6] was 10 (PR) and 12 (SD) and 2 and 4 and 1. The CR/PR [4, 8] was 2 (7.7) n (%), the “CR/PR/SD ≥6 cycles” value [4, 8] was 6 ^* n (%) and 6 (23.1) ^* n (%) and the “On study treatment at study closure in 2012” value [4, 8] was 1 (3.8) n (%). The “CR/PR/SD ≥6 cycles, Low grade/secondary glioma” value [4, 6] was 4, the “CR/PR/SD ≥6 cycles, Primary glioma” value [4, 6] was 2 and the “Clinical Benefit” value [4, 9] was 0/13. For the same compound, the “No Clinical Benefit” value [4, 9] was 0/13, the “Clinical Benefit” value [4, 10] was 3/13 and the “No Clinical Benefit” value [4, 10] was 10/13. The “Clinical Benefit” value [4, 11] was 4/8, the “No Clinical Benefit” value [4, 11] was 1/8 and the “Clinical Benefit” value [4, 12] was 0/8. For the same compound, the “No Clinical Benefit” value [4, 12] was 3/8, the “patients with clinical benefit (CR/PR and SD ≥6 cycles) among patients with IDH1/2 mutation” value ([4]; of the 5 patients with IDH1/2 mutation) was 4 patients and the “patients with a reduction in pSMAD2 in PBMCs” value ([5]; Cohort 3 (160 mg/day), 9 of 14 patients, first 14 days of treatment) was 64%. The “mean percentage inhibition of pSMAD2” value ([5]; Cohort 3, end of 14 days of treatment, PBMCs) was “approximately 40%”, the “patients with pSMAD2 levels reduced in relationship to drug concentration” value ([5]; Cohort 3, of 11 patients assessed about 2–6 h after administration on Day 14 of first cycle) was 6 patients and the inhibition at 160 mg ([5]; Day 1, 0.5 h, PBMCs, mixed-effects model, read-out: Fitted Percentage Inhibition of Normalized pSMAD2) was 27%. The inhibition at 160 mg ([5]; Day 1, 0.5 h, PBMCs, read-out: Observed Percentage Inhibition of Normalized pSMAD2) was 26%, the inhibition at 160 mg ([5]; Day 1, 4 h, PBMCs, mixed-effects model, read-out: Fitted Percentage Inhibition of Normalized pSMAD2) was 5% and the inhibition at 160 mg ([5]; Day 1, 4 h, PBMCs, read-out: Observed Percentage Inhibition of Normalized pSMAD2) was 5%. It also gave an inhibition at 160 mg ([5]; Day 1, 6 h, PBMCs, mixed-effects model, read-out: Fitted Percentage Inhibition of Normalized pSMAD2) of -10%, an inhibition at 160 mg ([5]; Day 1, 6 h, PBMCs, read-out: Observed Percentage Inhibition of Normalized pSMAD2) of -10% and an inhibition at 160 mg ([5]; Day 12 or 15 post dose (2, 3, 4, 6 h), PBMCs, mixed-effects model, read-out: Fitted Percentage Inhibition of Normalized pSMAD2) of 34%. For the same compound, the inhibition at 160 mg ([5]; Day 12 or 15 post dose (2, 3, 4, 6 h), PBMCs, read-out: Observed Percentage Inhibition of Normalized pSMAD2) was 39% and the “pSMAD2 inhibition after drug was stopped” value ([5]; next 3 days after 14 days of administration, 2 patients, drug levels low or undetectable) was “still present”.
